Reference: PMC6332318, “Synthetic Development of New 3-(4-Arylmethylamino)butyl-5-arylidene-rhodanines under Microwave Irradiation and Their Effects on Tumor Cell Lines and against Protein Kinases” (Molecules, 2015)

What was measured:
[1] = tested on: Caco 2 cells (differentiating colorectal adenocarcinoma); test: in vitro inhibition of cell proliferation / survival assay; type: cell-based; conditions: Homo sapiens; for viability at 25 µM: measured at 25 μM after 48 h, single dose, triplicate
Experimental: (§1) As an initial effort to investigate their in vitro bioactivity, the new synthesized 3-(4-arylmethylamino)butyl-2-thioxo-1,3-thiazolidine-4-one 9a–n and also their precursors 6a–f were evaluated for their in vitro inhibition of cell proliferation. For this study, we used a panel of seven representative tumoral cell lines, namely HuH7 D12 (differential hepato cellular carcinoma), Caco 2 (differentiating colorectal adenocarcinoma), MDA-MBD231 ([…]), HCT 116 (actively proliferating colorectal adenocarcinoma), PC3 (prostate carcinoma), NCI-H727 (lung carcinoma), HaCat keratinocyte and, diploid skin fibroblasts as normal cell lines for control.
(§2) Skin diploid fibroblastic cells were provided by BIOPREDIC International Company (Rennes, France). Caco2 (Ref ECACC: 86010202), Huh-7D12 (Ref ECACC: 01042712), MDA-MB-231 (Ref ECACC: 92020424), HCT-116 (Ref ECACC: 91091005), PC3 (Ref ECACC: 90112714), NCI-H727 (Ref ECACC: 94060303) cell lines were obtained from the ECACC collection and HaCaT (from Cell Lines Service, Eppelheim, Germany). Cells were grown according to ECACC recommendations. The toxicity test of the compounds on these cells was as follows: 2 × 10^3 cells for HCT-116 cells or 4 × 10^3 for the other cells were seeded in 96 multiwell plates in triplicate and left for 24 h for attachment, spreading and growing. Then, cells were exposed for 48 h to increasing concentrations of the compounds, ranging from 0.1 to 25 μM in a final volume of 120 μL of culture medium. Cells were fixed in cooled solution of 90% ethanol/5% acetic acid, nuclei were stained with Hoechst 3342 (Sigma) and counted using automated imaging analysis (Cellomics Arrayscan VTI/HCS Reader, Thermo/Scientific, Waltham, MA, USA). The IC50 were graphically determined.

[2] = tested on: HCT 116 cells (actively proliferating colorectal adenocarcinoma); test: as above; type: cell-based; conditions: Homo sapiens; for viability at 25 µM: measured at 25 μM after 48 h, single dose, triplicate
Experimental: as §1, §2

HaCat keratinocyte = test: as above; type: cell-based; conditions: Homo sapiens; for viability at 25 µM: measured at 25 μM after 48 h, single dose, triplicate
Experimental: as §1, §2

[3] = tested on: Huh7 D12 cells (differential hepato cellular carcinoma); test: as above; type: cell-based; conditions: for viability at 25 µM: Huh-7D12, measured at 25 μM after 48 h, single dose, triplicate
Experimental: as §1, §2

MDA-MB231 cells = test: as above; type: cell-based; conditions: Homo sapiens; for viability at 25 µM: MDA-MB-231, measured at 25 μM after 48 h, single dose, triplicate
Experimental: as §1, §2

[4] = tested on: NCI-H727 cells (lung carcinoma); test: as above; type: cell-based; conditions: Homo sapiens, NCI-H727; for viability at 25 µM: measured at 25 μM after 48 h, single dose, triplicate, read-out: % of Survival
Experimental: as §1, §2

[5] = tested on: PC3 cells (prostate carcinoma); test: as above; type: cell-based; conditions: Homo sapiens; for viability at 25 µM: PC-3, measured at 25 μM after 48 h, single dose, triplicate
Experimental: as §1, §2

diploid skin fibroblasts = test: in vitro inhibition of cell proliferation / survival assay, normal cells control; type: cell-based; conditions: Skin fibroblast, Fibroblasts; for viability at 25 µM: measured at 25 μM after 48 h, single dose, triplicate, read-out: % of Survival
Experimental: as §1, §2

[6] = tested on: panel of seven representative tumoral cell lines; test: in vitro inhibition of cell proliferation, whole panel; type: cell-based; conditions: all cell lines of the panel, without selectivity; read-out: IC50, moderate antitumor activities in all cell lines of the panel
Experimental: as §1
as §2, with “The toxicity test of the compounds on these cells was as follows: 2 × 10^3 cells for HCT-116 cells or 4 × 10^3 for the other cells were seeded in 96 multiwell plates in triplicate and left for 24 h for attachment, spreading and growing. Then, cells were exposed for 48 h to increasing concentrations of the compounds, ranging from 0.1 to 25 μM in a final volume of 120 μL of culture medium.” left out

[7] = 48 h, average of three assays, standard error ± 0.5 μM

Row | IC50 [6] [µM] | melting point [°C] | SMILES | IC50 [1, 7] [µM] | viability at 25 µM [1] [%] | IC50 [2, 7] [µM] | viability at 25 µM [2] [%] | IC50 (HaCat keratinocyte; HaCaT, 48 h, average of three assays, standard error ± 0.5 μM) [µM] | viability at 25 µM (HaCat keratinocyte) [%] | IC50 ([3]; Huh-7D12, 48 h, average of three assays, standard error ± 0.5 μM) [µM] | viability at 25 µM [3] [%] | IC50 (MDA-MB231 cells; MDA-MB-231, 48 h, average of three assays, standard error ± 0.5 μM) [µM] | viability at 25 µM (MDA-MB231 cells) [%] | IC50 [4, 7] [µM] | viability at 25 µM [4] [%] | IC50 ([5]; PC-3, 48 h, average of three assays, standard error ± 0.5 μM) [µM] | viability at 25 µM [5] [%] | IC50 (diploid skin fibroblasts; [7]) [µM] | viability at 25 µM (diploid skin fibroblasts) [%]
1 | 10 to 17 | 191 to 193 | COc1ccc(CNCCCCN2C(=O)/C(=C/c3ccc(O)c(OC)c3)SC2=S)cc1 [Compound 9d, (5Z)3-[4-(4-Methoxyphenylmethylamino)butyl]-5-(4-hydroxy-3-methoxybenzylidene)-2-thioxo-1,3-thiazolidin-4-one] | 15 | 23 | 10 | 1 | 10 | 2 | 10 | 7 | 11 | 15 | 10 | 11 | 17 | 41 | > 25 | 29
2 | – | > 260 | Cl.NCCCCNCc1ccccc1 [Compound 6a, N-1-Phenylmethyl-butane-1,4-diamine hydrochloride] | – | 114 | – | 112 | – | 97 | – | 102 | – | 104 | – | 97 | – | 100 | – | 93
3 | – | 247 to 251 | COc1cccc(CNCCCCN2C(=O)/C(=C/c3ccc4c(c3)OCCO4)SC2=S)c1 [Compound 9f, (5Z)3-[4-(3-Methoxyphenylmethylamino)butyl]-5-(2,3-dihydro-1,4-benzodioxin-6-ylmethylene)-2-thioxo-1,3-thiazolidin-4-one] | – | 110 | – | 113 | – | 100 | – | 102 | – | 98 | – | 96 | – | 98 | – | 134
4 | – | 253 to 255 | COc1ccc(/C=C2\SC(=S)N(CCCCNCc3ccc(OC)cc3)C2=O)cc1 [Compound 9b, (5Z)3-[4-(4-Methoxyphenylmethylamino)butyl]-5-(4-methoxybenzylidene)-2-thioxo-1,3-thiazolidin-4-one] | – | 108 | – | 102 | – | 104 | – | 105 | – | 97 | – | 90 | – | 99 | – | 167
